Test results from patent publication US20160345855A1, “METHODS OF TREATING BRAIN DISORDERS OR IDENTIFYING BIOMARKERS RELATED THERETO” (NORTHWESTERN UNIVERSITY, priority 2013, published 2016).
Entries after “also recorded” stand apart in the source; their conditions may differ. Peptide text beside a SMILES is read from it.

What was measured:
[1] = test system: healthy young adults; test: fMRI (BOLD) during item category association task, Example 1; assay type: in vivo, humans; conditions: IV-injection of 5 mg
Description: GLYX-13 was used to investigate whether this compound changed functional activation in hippocampal and related learning regions healthy young adults.
Twenty-four healthy individuals underwent functional magnetic resonance imaging (fMRI) after randomization to IV-injection of 5 mg of GLYX-13 (n=12) or placebo (n=12). Groups were matched on demographic factors, estimated IQ, and dose volume. While undergoing scanning, subjects performed an item category association task in which they learned over repeated cycles which of two categories a series of numbers were assigned. Change in blood-oxygen level dependent (BOLD) activity was measured during correctly performed trials, and differences in activation between groups were compared across learning cycles.

[2] = test system: healthy young adults; test: fMRI (BOLD) during item category association task, Example 2 (randomized, single-blind, parallel group); assay type: in vivo, humans; conditions: single IV 5 mg/kg
Excerpt: We investigated whether a single IV administration of GLYX-13 compared to placebo changed functional activation among healthy young adults performing a learning and memory task while undergoing fMRI.
The inclusion criteria for adult subjects participating in the study were as follows (i) 18-40 years of age; (ii) estimated IQ within what is considered to be the normal range (80-120); and (iii) no personal medical, neurologic, or psychiatric history, or reported history of psychiatric illness among first degree relatives.
After initial (Visit 1), patients were randomized to either single IV administration of GLYX-13 (5 mg/kg) or placebo on subsequent visit (Visit 2). fMRI studies started within 20 minutes post-infusion. Subjects returned approximately one week after Visit 2 to complete behavioral tasks in scanner and assess any adverse effects.
Item Category Association Task (See, e.g., Onur O A, Schlaepfer T E, Kukolja J, Bauer A, Jeung H, Patin A, Otte D-M, Shah N J, Maier W, Kendrick K M, Fink G R, Hurleman R (2010).
The N-methyl-D-aspartate receptor co-agonist D-Cycloserine facilitates declarative learning and hippocampal activity in humans. Biol. Psychiatry, 67, 1205). Subjects were asked to learn arbitrary group membership (A or B) of 3-digit numbers. Visual feedback was provided immediately following choice (button press) to indicate correct item category association. There were eight category memberships to be learned, which were presented over eight cycles (i.e., 7 repetitions) for a total of 64 trials per run; three sets of learning runs (each with different 3-digit number sets. See FIG. 3.
3T TIM Trio system (Siemens Medical Systems) with 32 channel coil. […]

[3] = test system: NMDAR; conditions: in vivo; cited from earlier work
[4] = test system: NMDAR; conditions: cited from earlier work; for side effects: human clinical studies; for Hamilton Depression Rating Score: patients suffering with refractory depression

SMILES | regions in which Placebo demonstrated greater activation compared to GLYX-13 [1] | BOLD activation over learning cycles compared to Placebo ([1]; n=12 per group, correctly performed trials, hippocampus, parahippocampal gyrus, amygdala, superior temporal, middle frontal, inferior frontal gyri) | task accuracy over successive cycles ([1]; both groups (GLYX-13 and placebo)) | number of identified regions with significant group by cycle interaction effects on extracted mean % signal change ([2]; FIGS. 7A-7F) | behavioral task performance (learning effect across cycle) ([2]; compared with Placebo, FIG. 5) | BOLD activation / extracted mean % signal change vs. Placebo ([2]; correct trials, FIGS. 7A-7F, 5 mg/kg) | antidepressant activity [3] | nootropic, neuroprotective, antinociceptive and cognitive activity [3] | psychotomimetic side effects [3] | side effects [4] | Hamilton Depression Rating Score [4]
C[C@@H](O)[C@H](N)C(=O)N1CCC[C@H]1C(=O)N1CCC[C@H]1C(=O)N[C@H](C(N)=O)[C@@H](C)O [GLYX-13, L-threonyl-L-prolyl-L-prolyl-L-threonine amide] (H-TPPT-NH2) | no regions | enhanced activation over learning cycles in several learning and memory regions | increased task accuracy over successive cycles | six | robust and comparable learning effect across cycle | enhanced activation; also recorded: enhanced BOLD signal change | rapid-acting, robust, and sustained antidepressant activity | exhibits nootropic, neuroprotective and antinociceptive activity, and enhances learning, memory and cognition in vivo | lack the pyschotomimetic side effects |  | 
C[C@@H]([C@@H](O)c1ccc(O)cc1)N1CCC(O)(c2ccccc2)CC1 [CPC-101.606] |  |  |  |  |  |  |  |  |  | severe | significant reductions
CNC1(c2ccccc2Cl)CCCCC1=O (stereo not shown) [ketamine] |  |  |  |  |  |  |  |  |  | severe | significant reductions
